Tests used:
HCT116 cells = assay: Microarray gene expression of drug-treated cells versus mock-treated cells; type: cell-based, human; settings: for expression response of the 11 hypermethylated guide genes: 300 nM TSA 18 hours or 5 μM DAC 96 hours
Description: Cell culture and treatment. HCT116 cells and isogenic genetic knockout derivatives were maintained as previously described (Rhee et al^1). For drug treatments, log phase HCT116 cells were cultured in McCoys 5A media (Invitrogen) containing 10% BCS and 1× penicillin/streptomycin with 5 μM 5-aza-deoxycytidine (DAC) (Sigma; stock solution: 1 mM in PBS) for 96 hours, replacing media and DAC every 24 hours. Cell treatment with 300 nM Trichostatin A (Sigma; stock solution: 1.5 mM dissolved in Ethanol) was performed for 18 hours. Control cells underwent mock treatment in parallel with addition of equal volume of PBS without drugs.
Microarray analysis. Total RNA was harvested from log phase cells using the Qiagen kit according to the manufacturers instructions, including a DNAase step. RNA was quantified using the Nanoprop ND-100 followed by quality assessment with 2100 Bioanalyzer (Agilent Technologies). RNA concentrations for individual samples were greater than 200 ng/ul, with 28 s/18 s ratios greater than 2.2 and RNA integrity numbers of 10. Sample amplification and labeling procedures were carried out using the Low RNA Input Fluorescent Linear Amplification Kit (Agilent Technologies) according to the manufacturers instructions. The labeled cRNA was purified using the RNeasy mini kit (Qiagen) and quantified. RNA spike-in controls (Agilent Technologies) were added to RNA samples before amplification. 0.75 microgram of samples labeled with Cy3 or Cy5 were mixed with control targets (Agilent Technologies), assembled on Oligo Microarray, hybridized, and processed according to the Agilent microarray protocol. Scanning was performed with the Agilent G2565BA microarray scanner under default settings recommended by Agilent Technologies.
Data analysis. All arrays were subject to quality checks recommended by the manufacturer. […] The log ratio of red signal to green signal was calculated after background-subtraction and LoEss normalization as implemented in the limma package from Bioconductor (Smyth et al. 1; Smyth et al. 2). […]

colorectal cell lines = assay: RT-PCR re-expression of Neuralized and FOXL2 in colorectal cancer cell lines; type: cell-based, human; settings: DAC treatment, panel of colorectal cell lines
Description: Cell culture and treatment. HCT116 cells and isogenic genetic knockout derivatives were maintained as previously described (Rhee et al^1). For drug treatments, log phase HCT116 cells were cultured in McCoys 5A media (Invitrogen) containing 10% BCS and 1× penicillin/streptomycin with 5 μM 5-aza-deoxycytidine (DAC) (Sigma; stock solution: 1 mM in PBS) for 96 hours, replacing media and DAC every 24 hours. Cell treatment with 300 nM Trichostatin A (Sigma; stock solution: 1.5 mM dissolved in Ethanol) was performed for 18 hours. Control cells underwent mock treatment in parallel with addition of equal volume of PBS without drugs. Methylation and gene expression analysis. RNA was isolated with TRIzolTM Reagent (Invitrogen) according to the manufacturer's instructions. For reverse transcription-PCR (RT-PCR), 1 μg of total RNA was reverse transcribed by using Ready-To-GoTM You-Prime First-Strand Beads (Amersham Biosciences) with addition of random hexamers (0.2 μg per reaction). […] For MSP analysis, DNA was extracted following a standard phenol-chloroform extraction method. Bisulfite modification of genomic DNA was carried out using the EZ DNA methylation KitTM (Zymo Research). […] MSP was performed as previously described (Herman et al.). […]

Row | Compound | expression response of the 11 hypermethylated guide genes (HCT116 cells) | DAC induced expression for genes in the TSA non-response zone (HCT116 cells; 5 μM DAC, 96 hours) | re-expression of hypermethylated Neuralized and FOXL2 genes (colorectal cell lines)
1 | Nc1ncn([C@H]2C[C@H](O)[C@@H](CO)O2)c(=O)n1 [DAC, 5-aza-deoxycytidine] | four (SFRP1, TFF2, TFF3, and CHFR) demonstrated re-expression responses near the top | > 2 fold | ability to re-express the genes
2 | CC(/C=C/C(=O)NO)=C\[C@@H](C)C(=O)c1ccc(N(C)C)cc1 [TSA, Trichostatin A] | remained within the TSA non-responsive zone | – | –
